The values below come from paper PMC8262977, “A Dual-Specificity Inhibitor Targets Polyphosphate Kinase 1 and 2 Enzymes To Attenuate Virulence of Pseudomonas aeruginosa” (mBio, 2021).

One data set deals with C. elegans. Kind of data set: Toxicity toward C. elegans (OP50 + gallein curves). It is filed as in vivo, Caenorhabditis elegans. As to conditions: 100 μM. On the procedure: We tested both liquid killing (LK) and solid-phase slow killing (SK) models of infection, as these two assays are reliant upon distinct mechanisms of P. aeruginosa pathogenesis ([34], [35]). […]. Wild-type N2 C. elegans and the glp-4 conditionally sterile mutant strain were obtained from the Caenorhabditis Genetics Center. Liquid killing assays were conducted using glp-4 mutant worms as described previously ([35]), with the exception of survival being scored manually under a Zeiss light microscope instead of via Sytox Orange staining. Nematodes were scored as dead when they no longer moved when tapped. Solid killing was conducted using glp-4 as described previously ([34]), with the indicated concentration of inhibitor impregnated into the SK agar. Bacterial CFU accumulation in WT N2 worms was quantified as described previously ([56]). Briefly, age-synchronized embryos were spotted onto bacterium-seeded nematode growth medium (NGM) agar plates impregnated with inhibitor or DMSO. Embryos were incubated at 25°C for 3 days, after which point adult worms were harvested, washed, lysed, and enumerated for CFU.

For a further data set, the system named is P. aeruginosa. Kind of data set: Bacterial CFU accumulation in the C. elegans gut. The class given is in vivo, Caenorhabditis elegans. As to the method: Wild-type N2 C. elegans and the glp-4 conditionally sterile mutant strain were obtained from the Caenorhabditis Genetics Center. Liquid killing assays were conducted using glp-4 mutant worms as described previously ([35]), with the exception of survival being scored manually under a Zeiss light microscope instead of via Sytox Orange staining. Nematodes were scored as dead when they no longer moved when tapped. Solid killing was conducted using glp-4 as described previously ([34]), with the indicated concentration of inhibitor impregnated into the SK agar. Bacterial CFU accumulation in WT N2 worms was quantified as described previously ([56]). Briefly, age-synchronized embryos were spotted onto bacterium-seeded nematode growth medium (NGM) agar plates impregnated with inhibitor or DMSO. Embryos were incubated at 25°C for 3 days, after which point adult worms were harvested, washed, lysed, and enumerated for CFU.

Another data set has as its system P. aeruginosa PA14. The data set can be described thus: Bacterial polyP accumulation assay after phosphate starvation. It is filed as cell-based, Pseudomonas aeruginosa. On the procedure: P. aeruginosa polyP levels following nutrient deprivation in morpholinepropanesulfonic acid (MOPS) minimal medium were assessed as described previously ([8]), with slight variations. Briefly, overnight cultures were grown in 5 ml LB in the presence of inhibitor or DMSO as indicated. Cultures were centrifuged for 10 min at 3,900 rpm to pellet cells, which were then resuspended in MOPS minimal medium containing 100 μM phosphate and the indicated quantity of inhibitor or DMSO. Cultures were incubated at 37°C for 2 h to allow polyP accumulation and then subsequently pelleted, resuspended in guanidinium thiocyanate (GITC) lysis buffer, and boiled at 95°C for 5 min. PolyP was purified via silica spin column as described previously ([8]), with the exception of using 50 nM PPK2A instead of E. coli PPK to convert polyP to ATP. An Invitrogen ATP determination kit (ThermoFisher) was used per the manufacturer’s instructions for ATP quantification. Luminescence was recorded on a SpectraMax iD3 microplate reader (Molecular Devices).

Setting [1] is: WT: DMSO control vs 100 µM gallein.

`O=C1OC2(c3ccccc31)c1ccc(O)c(O)c1Oc1c2ccc(O)c1O` [RT4 (gallein), gallein]: in the data set with C. elegans, the “toxicity toward C. elegans” value is “no gallein toxicity toward C. elegans was observed”. The “bacterial accumulation in the nematode gut” value was “reduced bacterial accumulation in the nematode gut” with P. aeruginosa (WT strain) and “further reduced bacterial accumulation” with P. aeruginosa (Δppk1 strain). For the same compound, the “C. elegans accumulation CFU, Mean Diff.” value in the data set with P. aeruginosa (setting [1]) is given as 783.3; in the data set with P. aeruginosa (∆polyP: DMSO control vs 100 µM gallein) it was -33.33; with P. aeruginosa (∆ppk1: DMSO control vs 100 µM gallein) it was 446.7. For the same compound, the “bacterial accumulation in the nematode gut (CFU)” value in the data set with P. aeruginosa (ΔpolyP strain) was “no additional decrease in CFU”. Further, the polyP levels entry is “reduced wild-type (WT) polyP levels in a dose-dependent manner” in the data set on P. aeruginosa PA14 (WT, phosphate starvation medium, nonbactericidal amounts); “significantly reduced polyP levels” in the data set on P. aeruginosa PA14 (Δppk1 strain); “had no effect” in the data set with P. aeruginosa PA14 (Δppk1 Δppk2A Δppk2B Δppk2C (ΔpolyP) strain); “reduced polyP in this strain to a similar extent as that in the WT” in the data set on P. aeruginosa PA14 (Δppk2A Δppk2B Δppk2C strain). The “Bacterial polyP accumulation, Mean Diff.” value is listed as 68.65 in the data set with P. aeruginosa PA14 (setting [1]); 2.148 with P. aeruginosa PA14 (Δppk1, Δppk2A, Δppk2B, Δppk2C: DMSO control vs 100 µM gallein); 29.11 in the data set on P. aeruginosa PA14 (Δppk1: DMSO control vs 100 µM gallein); 74.9 with P. aeruginosa PA14 (Δppk2A, Δppk2B, Δppk2C: DMSO control vs 100 µM gallein).
